According to paper PMC7018972, “Novel and selective inactivators of Triosephosphate isomerase with anti-trematode activity” (Scientific Reports, 2020):
Where two headings read alike, the source gives them in different places.

Target: Fasciola hepatica TIM (FhTIM) (Fasciola hepatica, UniProt S4UI50)
Assay: Inhibition of recombinant FhTIM, coupled enzyme assay
Assay type: biochemical
Method: Expression and purification of proteins: FhTIM, RabbitTIM and HsTIM were expressed in Escherichia coli and purified as described in the literature[31],[37]. […] Before use, extensive dialysis against 100 mM triethanolamine/10 mM EDTA (pH 7.4) was performed. […] Enzymatic activity was determined following the conversion of glyceraldehydes-3-phosphate into dihydroxyacetone phosphate in a coupled enzyme assay. The decrease in absorbance at 340 nm was followed in a multiplate reader VarioskanTM Flash Multimode Reader (Thermo ScientificTM, Waltham, MA, USA) at 38 °C. The reaction mixture (1 mL, pH 7.4) contained 100 mM triethanolamine, 10 mM EDTA, 0.2 mM NADH, 1 mM glyceraldehydes-3-phosphate and 0.9 units of α-glycerol phosphate dehydrogenase. The reaction was initiated by the addition of 5 ng/mL of the TIM of interest. For the inhibition studies, TIM was incubated at a concentration of 5 mg/mL in a buffer containing 100 mM triethanolamine, 10 mM EDTA, pH 7.4 and 10% of DMSO at 37 °C for 1 h. The mixture also contained the compounds, dissolved in DMSO, at the indicated concentrations. After 1 h, 10 µL were withdrawn and added to a final volume of 100 µL of the reaction mixture for the activity assay. The inhibition assay was performed in a 96-well microplate. […] The experiments were performed in triplicate in two independent experiments.

[1] = Table 1S, screening of 340 compounds in FhTIM, table head prints no unit, µM per b8/b9, read-out: IC50

Chain of Fasciola hepatica TIM (FhTIM) (S4UI50 entry or part of it): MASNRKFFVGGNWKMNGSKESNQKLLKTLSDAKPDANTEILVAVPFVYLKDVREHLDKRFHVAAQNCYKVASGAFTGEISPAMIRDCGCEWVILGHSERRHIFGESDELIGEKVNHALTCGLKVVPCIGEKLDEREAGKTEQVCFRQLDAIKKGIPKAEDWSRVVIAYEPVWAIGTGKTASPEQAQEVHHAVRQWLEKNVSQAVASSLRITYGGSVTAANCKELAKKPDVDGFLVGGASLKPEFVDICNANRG

Compound	IC50 [1]	other results
C=CCNC(=S)NN=C(C)c1cc2ccccc2o1 [Compound 787]	> 100 µM	
C=CCNC(=S)NN=Cc1ccc(C)o1 [Compound 788]	> 100 µM	
O=C(C=Cc1cccs1)C=Cc1cccs1 [Compound 796]	> 100 µM	
O=C(C=CC=Cc1ccccc1)C=CC=Cc1ccccc1 [Compound 797]	> 100 µM	
O=C(C=CC=Cc1cccs1)C=CC=Cc1cccs1 [Compound 798]	> 100 µM	
O=C1C(=Cc2ccccc2)CCCC1=Cc1ccccc1 [Compound 799]	100 µM	
O=C1C(=CC=Cc2ccccc2)CCCC1=CC=Cc1ccccc1 [Compound 800]	> 100 µM	
O=C1C(=Cc2cccs2)CCCC1=Cc1cccs1 [Compound 807]	> 100 µM	
O=C1C(=Cc2ccco2)CCCC1=Cc1ccco1 [Compound 808]	> 100 µM	
CC(C=CC(=O)C=CC(C)=Cc1ccco1)=Cc1ccco1 [Compound 809]	> 100 µM	
Nc1nc(-c2ccccc2)cs1 [Compound 810]	> 100 µM	
N#CSCC(=O)c1ccccc1 [Compound 811]	> 100 µM	
Nc1nc(-c2ccc(Cl)cc2)cs1 [Compound 813]	> 100 µM	
Cc1c(C(=O)NN=Cc2ccccc2)no[n+]1[O-] [Compound 824]	> 100 µM	
CC(/C=N/N1CCSCC1)=C\c1ccco1 [Compound 878]	50 to 100 µM	
O=C1C(=C2Nc3ccccc3C2=O)Nc2ccccc21 [Compound 879]	> 100 µM	
C=CCNC(=S)NN=C(C=CC=Cc1ccc(C)o1)C=CC=Cc1ccc(C)o1 [Compound 900]	> 100 µM	
C=CCNC(=S)NN=Cc1ccsc1 [Compound 911]	> 100 µM	
C=CCn1c(C(=O)O)csc1=NN=Cc1ccc(S(=O)(=O)O)o1 [Compound 913]	> 100 µM	
COc1cc(/C=C/C(=O)CC(=O)/C=C/c2cc(OC)c3oc(=O)cc(C)c3c2)ccc1O [Compound 915]	> 100 µM	
O=C1C(=CC=Cc2cccs2)CCC1=CC=Cc1cccs1 [Compound 1018]	> 100 µM	
O=C(C(O)c1ccccc1)C(O)c1ccccc1 (stereo not drawn) [Compound 1083]	> 100 µM	
S=C(NCc1ccccc1)NCc1ccccc1 [Compound 1085]	> 100 µM	

Compound	IC50 [1]	other results
O=c1cc(O)n(Cc2ccccc2)c(=S)n1Cc1ccccc1 [Compound 1088]	> 100 µM	
Clc1ccc(-c2c[se]c(=NN=CC=Cc3ccco3)n2CCN2CCOCC2)cc1 [Compound 1097]		IC50 (Table 1S, screening of 340 compounds in FhTIM, table head prints no unit, µM per b8/b9): 50 to 100 µM
Nc1nc(-c2ccc([N+](=O)[O-])cc2)cs1 [Compound 1098]	> 100 µM	
CN(C)c1ccncc1 [Compound 1101]	> 100 µM	
Cc1ccc(C=CC=CC(C=CC=Cc2ccc(C)o2)=NN2CCN(CC=Cc3ccccc3)CC2)o1 [Compound 1102]	> 100 µM	
CC(=O)Nc1ccc(C#N)cc1 [Compound 1104]	> 100 µM	
NC(=NO)c1ccc(Br)cc1 [Compound 1105]	> 100 µM	
CC(=O)Nc1ccc(C=NO)cc1 [Compound 1106]	> 100 µM	
ON=Cc1ccc(Br)cc1 [Compound 1107]	> 100 µM	
Cc1ccc(/C=C/C=C/C(=O)/C=C/C=C/c2ccc(C)o2)o1 [Compound 1108]	> 100 µM	
ON=Cc1ccc(O)cc1 [Compound 1113]	> 100 µM	
C=CCn1c(-c2csc(=NN=CC=Cc3cccs3)n2CC=C)csc1=NN=CC=Cc1cccs1 [Compound 1118]	> 100 µM	
C(=Cc1ccccc1)CCN1CCN(CCC=Cc2ccccc2)CC1 [Compound 1119]	> 100 µM	
NNC(=O)c1ccncc1 [Compound 1120]	> 100 µM	
Cc1ccc(-c2cc(C(F)(F)F)nn2-c2ccc(S(N)(=O)=O)cc2)cc1 [Compound 1121]	> 100 µM	
C=CCN1C(=O)CSC1=NN=C(C)[C@H]1CC[C@H]2[C@@H]3CC=C4CC(O)CC[C@]4(C)[C@H]3CC[C@]12C (stereo partly drawn) [Compound 1125]	> 100 µM	
CCOC(=O)c1cc2c(n1CC)C(=O)C(Oc1ccc(Cl)cc1)=CC2=O [Compound 1129]	> 100 µM	
C=CCN1C(=O)CSC1=NN=CC=Cc1cccs1 [Compound 1138]	> 100 µM	
C=CCN1C(=O)C(CC(=O)O)SC1=NN=Cc1cccs1 (stereo not drawn) [Compound 1139]	50 to 100 µM	
[Se]=C(NCCN1CCOCC1)NN=CC=Cc1ccco1 [Compound 1147]	50 to 100 µM	
Nc1ccc2nc3ccc(F)cc3nc2c1 [Compound 1149]		IC50 (recombinant FhTIM, 1 h incubation with compound at 37 °C, read-out: IC50): 50 ± 6 µM
CSc1ccc(C=CC(=O)c2ccc([N+](=O)[O-])cc2)cc1 [Compound 1155]	> 100 µM	
CCCCN1C(=O)C(=Cc2ccc([N+](=O)[O-])cc2)C(=O)N(CCCC)S1(=O)=O [Compound 1165]	> 100 µM	

Continued, in another order:

IC50 [1]	Compound	other results
> 100 µM	C=CCn1c(-c2csc(=NN=Cc3ccc(S(=O)(=O)O)o3)n2-c2ccccc2)csc1=NN=CC=Cc1ccco1 [Compound 785]	
> 100 µM	C=CCn1c(C(=O)O)csc1=NN=C/C=C/c1ccc(C)o1 [Compound 789]	
> 100 µM	C=CCn1c(-c2csc(=NN=CC=Cc3ccccc3)n2-c2ccccc2)csc1=NN=CC=Cc1ccco1 [Compound 791]	
> 100 µM	O=C(C=CC=Cc1ccco1)C=CC=Cc1ccco1 [Compound 793]	
> 100 µM	C(=CC=NN=c1scc(-c2ccccc2)n1-c1ccccc1)C=Cc1ccco1 [Compound 814]	
> 100 µM	C=CCn1c(-c2ccc(OC)cc2)csc1=NN=CC=Cc1ccco1 [Compound 871]	
> 100 µM	C=CCn1c(-c2ccc(Cl)cc2)csc1=NN=CC=Cc1ccc(C)o1 [Compound 872]	
> 100 µM	C(=Cc1ccco1)C=NN1CCN(Cc2ccccc2)CC1 [Compound 874]	
50 to 100 µM	C=CCn1c(-c2ccccc2)csc1=NN=CC=Cc1cccs1 [Compound 875]	
> 100 µM	C=CCn1c(-c2ccccc2)csc1=NN=Cc1ccc(S(=O)(=O)O)o1 [Compound 876]	
100 µM	O=C(/C=C/c1ccco1)c1ccccc1O [Compound 881]	
> 100 µM	Clc1ccc(-c2csc(NN=CC=Cc3ccco3)n2)cc1 [Compound 901]	
> 100 µM	Cc1ccc(C=CC=NN2CCN(CC=Cc3ccccc3)CC2)o1 [Compound 903]	
> 100 µM	C=CCn1c(C)csc1=NN=Cc1ccc2ccccc2c1 [Compound 904]	
> 100 µM	C=CCn1c(-c2ccc([N+](=O)[O-])cc2)csc1=NN=C/C=C/c1cccs1 [Compound 907]	
50 to 100 µM	C=CCn1c(-c2ccccc2)csc1=NN=Cc1ccc2ccccc2c1 [Compound 908]	
> 100 µM	Clc1ccc(-c2csc(N=CC=Cc3ccco3)n2)cc1 [Compound 910]	
> 100 µM	C(=Cc1ccco1)C=NN1CCN(CC=Cc2ccccc2)CC1 [Compound 912]	
50 to 100 µM	O=C1/C(=C/C=C/c2ccco2)CCC/C1=C\C=C\c1ccco1 [Compound 1019]	
> 100 µM	C=CCn1c(C(=O)N2CCN(C)CC2)csc1=NN=C/C=C/c1ccco1 [Compound 1093]	
> 100 µM	C=CCn1c(C(=O)CN2CCN(c3ccccc3)CC2)csc1=NN=CC=Cc1ccco1 [Compound 1099]	

IC50 [1]	Compound	other results
> 100 µM	C=CCn1c(C(=O)NN2CCN(CC=Cc3ccccc3)CC2)csc1=NN=CC=Cc1ccco1 [Compound 1100]	
> 100 µM	Cc1csc(=NN=Cc2cccs2)n1-c1ccccc1 [Compound 1103]	
> 100 µM	C=CCn1c(-c2ccccc2)csc1=NN=Cc1ccco1 [Compound 1109]	
> 100 µM	C=CCn1c(C)csc1=NN=Cc1ccco1 [Compound 1110]	
> 100 µM	C=CCn1c(C(=O)CN2CCN(CC=Cc3ccccc3)CC2)csc1=NN=CC=Cc1ccco1 [Compound 1112]	
> 100 µM	C=CCn1c(C(=O)CN2CCN(Cc3ccccc3)CC2)csc1=NN=CC=Cc1ccco1 [Compound 1114]	
> 100 µM	C=CCn1c(C(=O)CNN2CCN(C/C=C/c3ccccc3)CC2)csc1=NN=C/C=C/c1ccco1 [Compound 1115]	
> 100 µM	C=CCn1c(C(=O)CN2CCSCC2)csc1=NN=CC=Cc1ccco1 [Compound 1116]	
> 100 µM	C=CCn1c(C(=O)N2CCN(Cc3ccccc3)CC2)csc1=NN=CC=Cc1ccco1 [Compound 1117]	
> 100 µM	C=CCn1c(C(=O)NN2CCOCC2)csc1=NN=CC=Cc1ccco1 [Compound 1124]	
> 100 µM	C=CCn1c(C(=O)O)csc1=NN=CC=Cc1cccs1 [Compound 1126]	
> 100 µM	C=CCn1c(C)csc1=NN=CC=Cc1cccs1 [Compound 1128]	
> 100 µM	C=CCn1c(C)csc1=NN=Cc1ccc(S(=O)(=O)O)o1 [Compound 1130]	
> 100 µM	Cc1csc(=NN=CC=Cc2ccco2)n1-c1ccccc1 [Compound 1131]	
> 100 µM	C(=Cc1ccco1)C=NN=c1scc(-c2ccccc2)n1-c1ccccc1 [Compound 1132]	
> 100 µM	C=CCn1c(-c2ccc(OC)cc2)csc1=NN=CC=Cc1cccs1 [Compound 1133]	
> 100 µM	C=CCn1c(C)csc1=NN=CC=Cc1ccccc1 [Compound 1135]	
> 100 µM	O=C(O)c1csc(=NN=CC=CC=Cc2cccs2)n1-c1ccccc1 [Compound 1136]	
50 to 100 µM	C=CCn1c(-c2ccc(Br)cc2)csc1=NN=C/C=C/c1cccs1 [Compound 1137]	
> 100 µM	C(=Cc1ccco1)C=NN=CC=Cc1ccco1 [Compound 1140]	
